# Activity calls are given as the source filed them. The calls are words filed in the database; no cut-off is given here.
# Assays:
# HepG2 [1] = assay: Cytotoxicity against human HepG2 cells assessed as reduction in cell viability upto 50 uM by WST-1 assay; type: toxicity, cell-based; settings: hepg2, 50 µM
# LS174T [2] = assay: Cytotoxicity against human LS174T cells assessed as reduction in cell vaibility upto 50 uM by WST-1 assay; type: toxicity, cell-based
# Schistosoma mansoni [3] = assay: Antischistosomal activity against Schistosoma mansoni couples at 5 uM measured upto 72 hrs by bright field microscopy; type: functional, organism-based
# Schistosoma mansoni [4] = assay: Antischistosomal activity against Schistosoma mansoni couples assessed as decrease in parasite motility at 25 uM measured upto 72 hrs by bright field microscopy; type: functional; parameters: scale not given: the % may be the effect or the level left
# Schistosoma mansoni [5] = assay: Antischistosomal activity against Schistosoma mansoni couples assessed as decrease in parasite vitality at 10 uM measured upto 72 hrs by bright field microscopy; type: functional; parameters: scale not given: the % may be the effect or the level left
# Schistosoma mansoni [6] = assay: Antischistosomal activity against Schistosoma mansoni couples assessed as couple separation at 10 uM measured upto 72 hrs by bright field microscopy; type: functional
# HepG2 [7] = assay: Cytotoxicity against human HepG2 cells assessed as reduction in cell viability upto 100 uM by WST-1 assay; type: toxicity, cell-based; settings: hepg2, 100 µM
# LS174T [8] = assay: Cytotoxicity against human LS174T cells assessed as reduction in cell vaibility upto 100 uM by WST-1 assay; type: toxicity, cell-based
# Schistosoma mansoni [9] = assay: Antischistosomal activity against Schistosoma mansoni couples assessed as decrease in parasite motility at 100 uM measured upto 72 hrs by bright field microscopy; type: functional; parameters: scale not given: the % may be the effect or the level left
# Schistosoma mansoni [10] = assay: Antischistosomal activity against Schistosoma mansoni couples assessed as tegument damage at 100 uM measured upto 72 hrs by bright field microscopy; type: functional, organism-based
# Schistosoma mansoni [11] = assay: Antischistosomal activity against Schistosoma mansoni couples at 50 uM measured upto 72 hrs by bright field microscopy; type: functional, organism-based
# Schistosoma mansoni [12] = assay: Antischistosomal activity against Schistosoma mansoni couples at 25 uM measured upto 72 hrs by bright field microscopy; type: functional, organism-based
# HepG2 [13] = assay: Cytotoxicity against human HepG2 cells assessed as reduction in cell vaibility at 100 uM by WST-1 assay; type: toxicity, cell-based; settings: hepg2, 100 µM
# LS174T [14] = assay: Cytotoxicity against human LS174T cells assessed as reduction in cell viability at 100 uM by WST-1 assay; type: toxicity, cell-based
# Schistosoma mansoni [15] = assay: Antischistosomal activity against Schistosoma mansoni couples assessed as lethality to parasites at 50 uM measured upto 72 hrs by bright field microscopy; type: functional, organism-based
# Schistosoma mansoni [16] = assay: Antischistosomal activity against Schistosoma mansoni couples assessed as decrease in parasite vitality at <=25 uM measured upto 72 hrs by bright field microscopy; type: functional, organism-based
# Schistosoma mansoni [17] = assay: Antischistosomal activity against Schistosoma mansoni couples assessed as inhibition of eggs production at <=25 uM measured upto 72 hrs by bright field microscopy; type: functional, organism-based
# Schistosoma mansoni [18] = assay: Antischistosomal activity against Schistosoma mansoni couples assessed as couple separation at 100 uM measured upto 72 hrs by bright field microscopy; type: functional, organism-based
# Schistosoma mansoni [19] = assay: Antischistosomal activity against Schistosoma mansoni male worm assessed as tegument damage at 100 uM measured upto 72 hrs by bright field microscopy; type: functional, organism-based
# Schistosoma mansoni [20] = assay: Antischistosomal activity against Schistosoma mansoni female worm assessed as tegument damage at 100 uM measured upto 72 hrs by bright field microscopy; type: functional, organism-based
# Schistosoma mansoni [21] = assay: Antischistosomal activity against Schistosoma mansoni female worm assessed as gut dilatations at 100 uM measured upto 72 hrs by bright field microscopy; type: functional, organism-based
# Schistosoma mansoni [22] = assay: Antischistosomal activity against Schistosoma mansoni female worm assessed as gut dilatations at 10 uM measured upto 72 hrs by bright field microscopy; type: functional, organism-based
# Schistosoma mansoni [23] = assay: Antischistosomal activity against Schistosoma mansoni couples assessed as inhibition of eggs production at 50 uM measured upto 72 hrs by bright field microscopy; type: functional, organism-based
# Schistosoma mansoni [24] = assay: Antischistosomal activity against Schistosoma mansoni couples assessed as reduction in pairing stability at 50 uM measured upto 72 hrs by bright field microscopy; type: functional, organism-based
# Schistosoma mansoni [25] = assay: Antischistosomal activity against Schistosoma mansoni couples assessed as reduction in pairing stability at 25 uM measured upto 72 hrs by bright field microscopy; type: functional
# Schistosoma mansoni [26] = assay: Antischistosomal activity against Schistosoma mansoni couples assessed as inhibition of eggs production at 25 uM measured upto 72 hrs by bright field microscopy; type: functional
# Schistosoma mansoni [27] = assay: Antischistosomal activity against Schistosoma mansoni couples assessed as decrease in parasite motility at 10 uM measured upto 72 hrs by bright field microscopy; type: functional, organism-based
# Schistosoma mansoni [28] = assay: Antischistosomal activity against Schistosoma mansoni couples assessed as decrease in pairing stability at 5 uM measured upto 72 hrs by bright field microscopy; type: functional
# Schistosoma mansoni [29] = assay: Antischistosomal activity against Schistosoma mansoni couples assessed as decrease in parasite vitality at 5 uM measured upto 72 hrs by bright field microscopy; type: functional, organism-based
# Schistosoma mansoni [30] = assay: Antischistosomal activity against Schistosoma mansoni couples assessed as inhibition of eggs production at 5 uM measured upto 72 hrs by bright field microscopy; type: functional
# Schistosoma mansoni [31] = assay: Antischistosomal activity against Schistosoma mansoni couples assessed as gut dilations at 50 uM measured upto 72 hrs by bright field microscopy; type: functional, organism-based
# Schistosoma mansoni [32] = assay: Antischistosomal activity against Schistosoma mansoni couples assessed as tegument damage at 50 uM measured upto 72 hrs by bright field microscopy; type: functional, organism-based
# Schistosoma mansoni [33] = assay: Antischistosomal activity against Schistosoma mansoni couples assessed as intestinal dilations and tegument damage at 50 uM measured upto 72 hrs by bright field microscopy; type: functional, organism-based
# Schistosoma mansoni [34] = assay: Antischistosomal activity against Schistosoma mansoni couples assessed as gut dilations at 25 uM measured upto 72 hrs by bright field microscopy; type: functional, organism-based
# Schistosoma mansoni [35] = assay: Antischistosomal activity against Schistosoma mansoni couples assessed as tegument damage at 25 uM measured upto 72 hrs by bright field microscopy; type: functional, organism-based
# Schistosoma mansoni [36] = assay: Antischistosomal activity against Schistosoma mansoni couples assessed as intestinal dilations and tegument damage at 25 uM measured upto 72 hrs by bright field microscopy; type: functional, organism-based
# Schistosoma mansoni [37] = assay: Antischistosomal activity against Schistosoma mansoni couples assessed as decrease in parasite motility at 50 uM measured upto 72 hrs by bright field microscopy; type: functional; parameters: scale not given: the % may be the effect or the level left
# Schistosoma mansoni [38] = assay: Antischistosomal activity against Schistosoma mansoni couples assessed as decrease in parasite vitality at 25 uM measured upto 72 hrs by bright field microscopy; type: functional, organism-based
# Schistosoma mansoni [39] = assay: Antischistosomal activity against Schistosoma mansoni couples assessed as decrease in parasite motility at <25 uM measured upto 72 hrs by bright field microscopy; type: functional, organism-based
# Schistosoma mansoni [40] = assay: Antischistosomal activity against Schistosoma mansoni couples assessed as inhibition of eggs production at <25 uM measured upto 72 hrs by bright field microscopy; type: functional, organism-based
# Schistosoma mansoni [41] = assay: Antischistosomal activity against Schistosoma mansoni couples assessed as decrease in mating stability <25 uM measured upto 72 hrs by bright field microscopy; type: functional, organism-based
# Schistosoma mansoni [42] = assay: Antischistosomal activity against Schistosoma mansoni couples assessed as lethality to parasites at 100 uM measured upto 72 hrs by bright field microscopy; type: functional, organism-based
# Schistosoma mansoni [43] = assay: Antischistosomal activity against Schistosoma mansoni couples at 100 uM measured upto 72 hrs by bright field microscopy; type: functional, organism-based
# Schistosoma mansoni [44] = assay: Antischistosomal activity against Schistosoma mansoni couples assessed as couple separation at 25 uM measured upto 72 hrs by bright field microscopy; type: functional, organism-based
# Schistosoma mansoni [45] = assay: Antischistosomal activity against Schistosoma mansoni couples assessed as tissue structural changes at 25 uM measured upto 72 hrs by bright field microscopy; type: functional, organism-based
smiles,measurement,setting,value
CCN(CC)C(=S)SCc1cc(=O)oc2cc(OC)ccc12,Activity,HepG2 [1],Non-Toxic
same,Activity,LS174T [2],Non-Toxic
same,Activity,Schistosoma mansoni [3],Active
CCN(CC)C(=S)SCC1CCCCC1,Activity,Schistosoma mansoni [4],35%
same,Activity,Schistosoma mansoni [5],90%
same,Activity,Schistosoma mansoni [6],60%
same,Activity,HepG2 [7],Non-Toxic
same,Activity,LS174T [8],Non-Toxic
CCN(CC)C(=S)SCc1ccc(S(C)(=O)=O)cc1,Activity,Schistosoma mansoni [9],~60%
same,Activity,Schistosoma mansoni [10],Active
same,Activity,Schistosoma mansoni [11],Active
same,Activity,Schistosoma mansoni [12],inactive
S=C(SCc1ccccc1)n1ccc2ccccc21,Activity,Schistosoma mansoni [4],>=55%
same,Activity,HepG2 [13],Non-Toxic
same,Activity,LS174T [14],Non-Toxic
same,Activity,Schistosoma mansoni [15],Active
same,Activity,Schistosoma mansoni [16],Active
same,Activity,Schistosoma mansoni [17],Active
same,Activity,Schistosoma mansoni [18],Active
same,Activity,Schistosoma mansoni [19],Active
same,Activity,Schistosoma mansoni [20],Active
same,Activity,Schistosoma mansoni [21],Active
same,Activity,Schistosoma mansoni [22],inactive
CCN(CC)C(=S)SCc1ccc([N+](=O)[O-])cc1,Activity,Schistosoma mansoni [23],Active
same,Activity,Schistosoma mansoni [24],Active
same,Activity,Schistosoma mansoni [25],Active
same,Activity,Schistosoma mansoni [26],Active
same,Activity,Schistosoma mansoni [27],Active
same,Activity,Schistosoma mansoni [28],Active
same,Activity,Schistosoma mansoni [29],Active
same,Activity,Schistosoma mansoni [30],Active
same,Activity,Schistosoma mansoni [31],Active
same,Activity,Schistosoma mansoni [32],Active
same,Activity,Schistosoma mansoni [33],Active
same,Activity,Schistosoma mansoni [34],Active
same,Activity,Schistosoma mansoni [35],Active
same,Activity,Schistosoma mansoni [36],Active
CCN(CC)C(=S)SCc1cc([N+](=O)[O-])ccc1O,Activity,Schistosoma mansoni [37],>60%
same,Activity,Schistosoma mansoni [4],inactive
same,Activity,Schistosoma mansoni [10],Active
same,Activity,Schistosoma mansoni [25],>=90%
same,Activity,Schistosoma mansoni [26],>=90%
same,Activity,Schistosoma mansoni [38],inactive
same,Activity,Schistosoma mansoni [39],inactive
same,Activity,Schistosoma mansoni [40],inactive
same,Activity,Schistosoma mansoni [41],inactive
same,Activity,Schistosoma mansoni [42],Active
CN(C)CCN1CCN(C(=S)SCc2ccc([N+](=O)[O-])cc2)CC1,Activity,Schistosoma mansoni [4],55%
same,Activity,HepG2 [13],Toxic
same,Activity,LS174T [14],Toxic
same,Activity,Schistosoma mansoni [43],Active
same,Activity,Schistosoma mansoni [26],Active
same,Activity,Schistosoma mansoni [38],Active
same,Activity,Schistosoma mansoni [34],Active
same,Activity,Schistosoma mansoni [44],Active
same,Activity,Schistosoma mansoni [45],Active
